Experimental findings from US10440953B2, “Control of pests in maize by ginkgolides and bilobalide” (priority 2015, dated 2019) are described below.

Holding throughout (type): in vivo
In series [1] the test system is Nezara viridula. Nature of the series: Foliar spray of maize plants, mortality of Nezara viridula (Example-1). The note with it: for mortality at 100 ppm: Nezara viridula, foliar, 72 h. The protocol:
Zea mays plants were grown to growth stage BBCH 12. The maize plants were then sprayed with 300 l/ha of aqueous compositions comprising either no component of the ginkgo tree, 300 ppm of ginkgolide A, or 100 ppm of bilobalide. The plants were then allowed to dry and subsequently infested with five insects (either adult, or 4th instar nymphs) of Nezara viridula. Insects were contained on the plant using mesh organza bags. Three replicates on different plants were made for each measurement. Three days after infestation, the number of live and dead insects was determined. The mean mortality values were gathered in Table D.

In series [2] the test system is Euschistus heros. Put plainly: Spray of Agrisure Viptera and Roundoup Ready 2 maize seedlings with bilobalide, control of Euschistus heros (Example-4). The note with it: for Relative Efficacy 6DAI: Abbott's formula; for No of alive insects 6DAI: ten adult E. heros per plant. The protocol: (§1) Relative efficacy (E) values were calculated according to Abbot's formula E=[(C−G)/C]×100, wherein C is the percentage of alive insects in untreated controls, and G is the percentage of alive insects in plants treated with components of the ginkgo tree.
(§2) Agrisure™ Viptera and Roundoup Ready™ 2 Zea mays seedlings were sprayed with 1 ml of compositions comprising either no component of the ginkgo tree, or bilobalide at a concentration of 50, 100, or 150 ppm. Plants were allowed to dry and subsequently infested with ten adult insects of Euschistus heros. Three replicate measurement on different plants were made for each measurement. Six days after infestation (6DAI) number of live and dead insects was determined. The mean number of alive insects, as well as the relative efficacy values (E) according to Abbott's formula were gathered in Table G, wherein the number of alive insects in untreated controls (C) was the value of the same plant without the application of bilobalide.

Series [3] relates to Nezara viridula. Put plainly: Soil drench on corn, mortality of Nezara viridula (Example-2). The settings on record: soil drench 2.5 mg active ingredient per plant, infested 3DAT, measured 7DAT. The protocol: Ginkgolide A and Bilobalide were each dissolved in a solution of 50 wt % of acetone in water and applied to the soil of corn four days after planting at a rate of 2.5 mg of the active ingredient per plant. Prior to infestation the soil was covered with parafilm to prevent insect exposure to treated soil. Each plant was infested 3DAT with four 4th instar Nezara viridula insects. Insects were contained on the plant using organza fabric bags. Four replicates on different plants were made for each measurement. The mortality of the insects was measured 7DAT. The mean mortality values were gathered in Table E.

The subject of series [4] is Nezara viridula. Nature of the series: Corn seed treatment, damage protection against Nezara viridula (Example-3). The settings on record: 4th instar N. viridula, assessed 10DAT. As for the experimental part:
Ginkgolide A was dissolved in DMSO and applied to corn seeds at rates of 1.0 and 0.5 mg of Ginkgolide A per plant. One seed was planted per pot in a 1:1 mixture of North Carolina loamy sand:sand. Prior to infestation, soil was covered with parafilm to prevent insect exposure to treated soil. After emergence of the plants, each pot was infested with four 4th instar Nezara viridula insects. Insects were contained on the pots using organza fabric bags. Four replicates on different plants were made for each measurement. The mean damage protection of the corn plants was assessed 10DAT in comparison with untreated controls. For plant height, root mass, and root length, evaluation of the damage protection of the plants was carried out for each treatment as the increase from the infested solvent blank (SB) relative to the increase of the uninfested control from the infested solvent blank: (Treatment−Infested SB)/Uninfested SB−Infested SB)×100%. The results of the mean damage protection values were gathered in Table F.

Series [5] concerns Euschistus heros. Put plainly: Spray of Agrisure Viptera and Roundoup Ready 2 maize seedlings with ginkgolide A, control of Euschistus heros (Example-5). The note with it: for Relative Efficacy 3DAI: Abbott's formula; for No of alive insects 3DAI: ten adult E. heros per plant. As for the experimental part: as §1, §2
Three days after infestation (3DAI) number of live and dead insects was determined. The mean number of alive insects, as well as the relative efficacy values (E) according to Abbott's formula were gathered in Table H, wherein the number of alive insects in untreated controls (C) was the value of the same plant without the application of ginkgolide A.

Setting [6] is: Agrisure Viptera maize, 50 ppm bilobalide.
Where [7] appears, read: Agrisure Viptera maize, 100 ppm bilobalide.
Where [8] appears, read: Agrisure Viptera maize, 150 ppm bilobalide.
[9] abbreviates: Roundoup Ready 2 maize, 50 ppm bilobalide.
Where [10] appears, read: Roundoup Ready 2 maize, 100 ppm bilobalide.
Setting [11] is: Roundoup Ready 2 maize, 150 ppm bilobalide.
Where [12] appears, read: Agrisure Viptera maize, 10 ppm ginkgolide A.
The mark [13] stands for this setting: Agrisure Viptera maize, 250 ppm ginkgolide A.
The mark [14] stands for this setting: Roundoup Ready 2 maize, 10 ppm ginkgolide A.
[15] abbreviates: Roundoup Ready 2 maize, 250 ppm ginkgolide A.

SMILES strings stand for the structures. Read-outs that look alike come from different tables or passages of the source.

With `CC(C)(C)[C@]1(O)C[C@@H]2OC(=O)C[C@@]23C(=O)O[C@@H]2OC(=O)[C@H](O)[C@]213` [Bilobalide, (3aS,5aR,8aS,9R,10aR)-9-tert-butyl-8,9-dihydroxydihydro-9H-furo[2,3-b]furo[3′,2′;2,3]cyclopenta[1,2-c]furan-2,4,7(3H,8H)-trione], the mortality (in general, the share of the test organisms that died) at 100 ppm in series [1] (read-out: Mortality of 4th instar nymphs) is 84.6%; in series [1] (read-out: Mortality of Adults) it was 33.3%. The “Relative Efficacy 6DAI” value is 92% in series [2] (setting [6]); 96% in series [2] (setting [7]); 100% in series [2] (setting [8]); 83% in series [2] (setting [9]); 89% in series [2] (setting [10]); 94% in series [2] (setting [11]). In addition, the “No of alive insects 6DAI” value came to 0.7 in series [2] (setting [6]); 0.3 in series [2] (setting [7]); 0.0 in series [2] (setting [8]); 1.0 in series [2] (setting [9]); 0.7 in series [2] (setting [10]); 0.3 in series [2] (setting [11]). Also, the “Mortality of 4th instar nymphs relative to untreated control” value in series [3] worked out at 85%.

As to `C[C@@H]1C(=O)O[C@H]2C[C@@]34[C@H]5C[C@@H](C(C)(C)C)[C@]36[C@@H](OC(=O)[C@@H]6O)O[C@@]4(C(=O)O5)[C@]21O` [Ginkgolide A], the Mean damage protection in series [4] (seed treatment 0.5 mg/seed) turned out to be 64%; in series [4] (seed treatment 1.0 mg/seed), 77%. Moreover, the “Relative Efficacy 3DAI” value in series [5] (setting [12]) was found to be 38%; in series [5] (setting [13]) it was 35%; in series [5] (setting [14]), 14%; in series [5] (setting [15]), 21%. Further, the “No of alive insects 3DAI” value in series [5] (setting [12]) was found to be 5.3; in series [5] (setting [13]), 5.7; in series [5] (setting [14]), 8.3; in series [5] (setting [15]), 7.7. Also, in series [1] (300 ppm ginkgolide A, 300 l/ha spray on Zea mays BBCH 12, 4th instar N. viridula, three days after infestation), the “Mortality of 4th instar nymphs” value is 61.5%. In series [1] (300 ppm ginkgolide A, 300 l/ha spray on Zea mays BBCH 12, adult N. viridula, three days after infestation), the “Mortality of Adults” value came to 20.0%. Moreover, the “Mortality of 4th instar nymphs relative to untreated control” value in series [3] is reported as 100%.
